Results published in the Kinase Knowledgebase extract (Sharma et al. 2016).
pEC50, pIC50: −log10 of the molar value. Several values for one entry are separate records, joined by “and”; a condition that tells them apart may be missing. Identical values can stand only once.

Target: PIK3CA (UniProt P42336)
Test: Inhibition of PIK3CA Kinase Activity
Conditions: not given

Sequence of PIK3CA (P42336 whole entry, looked up): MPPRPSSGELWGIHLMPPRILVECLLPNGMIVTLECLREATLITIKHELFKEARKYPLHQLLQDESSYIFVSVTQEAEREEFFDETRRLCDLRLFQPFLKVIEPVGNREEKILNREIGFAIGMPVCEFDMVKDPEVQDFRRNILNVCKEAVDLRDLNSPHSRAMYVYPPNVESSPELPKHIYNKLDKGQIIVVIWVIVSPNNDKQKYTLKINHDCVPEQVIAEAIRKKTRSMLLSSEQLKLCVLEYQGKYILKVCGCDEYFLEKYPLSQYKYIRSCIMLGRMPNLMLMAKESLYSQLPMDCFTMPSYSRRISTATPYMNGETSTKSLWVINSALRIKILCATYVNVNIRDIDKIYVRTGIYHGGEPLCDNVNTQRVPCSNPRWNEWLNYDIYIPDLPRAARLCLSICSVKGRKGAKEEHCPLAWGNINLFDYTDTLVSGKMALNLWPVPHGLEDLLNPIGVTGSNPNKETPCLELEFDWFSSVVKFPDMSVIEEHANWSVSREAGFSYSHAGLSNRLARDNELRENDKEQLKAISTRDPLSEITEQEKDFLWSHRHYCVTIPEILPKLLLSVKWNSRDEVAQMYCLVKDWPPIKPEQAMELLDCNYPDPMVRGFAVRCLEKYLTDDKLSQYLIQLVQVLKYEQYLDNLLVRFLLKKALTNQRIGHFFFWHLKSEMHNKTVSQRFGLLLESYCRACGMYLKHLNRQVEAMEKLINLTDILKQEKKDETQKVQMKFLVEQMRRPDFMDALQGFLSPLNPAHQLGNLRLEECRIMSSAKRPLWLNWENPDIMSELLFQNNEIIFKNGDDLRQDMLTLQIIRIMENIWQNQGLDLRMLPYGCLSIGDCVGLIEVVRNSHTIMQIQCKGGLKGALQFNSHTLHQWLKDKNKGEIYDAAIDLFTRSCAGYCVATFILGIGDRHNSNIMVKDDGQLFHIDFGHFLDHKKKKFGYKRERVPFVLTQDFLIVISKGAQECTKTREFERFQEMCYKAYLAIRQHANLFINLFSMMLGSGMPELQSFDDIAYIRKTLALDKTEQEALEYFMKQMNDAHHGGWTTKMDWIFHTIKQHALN

Structure (SMILES)	pIC50
O=c1c2cc3ccccc3cc2nc(CSc2ncnc3[nH]cnc23)n1-c1ccccc1Cl	4.17
Cc1cccc2nc(CSc3ncnc4[nH]cnc34)n(-c3c(Cl)cccc3Cl)c(=O)c12	4.72
Cc1ccccc1-n1c(CSc2ncnc3[nH]cnc23)nc2cccc(Cl)c2c1=O	4.32
Cc1cccc2nc(Cn3cnc4c(N)ncnc43)n(-c3ccccc3F)c(=O)c12	4.05 and 4.15
Nc1ncnc2c1ncn2Cc1nc2cc(F)ccc2c(=O)n1-c1ccccc1Cl	4.04
Cc1cccc2nc(Cn3cnc4c(N)ncnc43)n(-c3ccccc3C(C)C)c(=O)c12	4.31
Cc1cccc2nc(CSc3ncnc4[nH]cnc34)n(-c3ccccc3F)c(=O)c12	4.13
CN1CCN(n2c(CSc3ncnc4[nH]cnc34)nc3ccccc3c2=O)CC1	3.98
O=c1c2ccccc2nc(CSc2ncnc3[nH]cnc23)n1-c1ccc(Cl)cc1	6.15
O=c1c2cc(O)ccc2nc(CSc2ncnc3[nH]cnc23)n1-c1ccccc1Cl	4.00
COc1ccccc1-n1c(CSc2ncnc3[nH]cnc23)nc2cccc(C)c2c1=O	4.52
O=c1c2cccc(Cl)c2nc(CSc2ncnc3[nH]cnc23)n1-c1ccccc1Cl	4.00
Nc1ncnc2c1ncn2Cc1nc2cccc(Cl)c2c(=O)n1-c1ccccc1-c1ccccc1	4.09
O=c1c2ccccc2nc(CSc2ncnc3[nH]ncc23)n1-c1ccccc1Cl	3.98

Same assay, conditions: concentration not given here

Structure (SMILES)	inhibition [%]
O=c1c2ccccc2nc(CSc2ncnc3[nH]cnc23)n1-c1cccc(Cl)c1	33
O=c1c2cc3ccccc3cc2nc(CSc2ncnc3[nH]cnc23)n1-c1ccccc1Cl	0
O=c1c2cc(Cl)ccc2nc(CSc2ncnc3[nH]cnc23)n1-c1ccccc1Cl	31
COc1cccc(-n2c(CSc3ncnc4[nH]cnc34)nc3ccccc3c2=O)c1	23
O=c1c2c(F)cccc2nc(CSc2ncnc3[nH]cnc23)n1Cc1ccccc1	17
Nc1ncnc2c1ncn2Cc1nc2ccc(Cl)cc2c(=O)n1-c1ccccc1Cl	7
Cc1cccc2nc(CSc3ncnc4[nH]cnc34)n(-c3c(Cl)cccc3Cl)c(=O)c12	8
Cc1ccccc1-n1c(CSc2ncnc3[nH]cnc23)nc2cccc(Cl)c2c1=O	26
Cc1cccc2nc(Cn3cnc4c(N)ncnc43)n(-c3ccccc3C(C)C)c(=O)c12	-10
Cc1cccc2nc(CSc3ncnc4[nH]cnc34)n(-c3ccccc3F)c(=O)c12	13
Nc1ncnc2c1ncn2Cc1nc2ccc(Br)cc2c(=O)n1-c1ccccc1Cl	12
O=c1c2cc(Br)ccc2nc(CSc2ncnc3[nH]cnc23)n1-c1ccccc1Cl	11
COc1cc2nc(Cn3cnc4c(N)ncnc43)n(-c3ccccc3Cl)c(=O)c2cc1OC	17
Nc1ncnc2c1ncn2Cc1nc2ccccc2c(=O)n1N1CCOCC1	11
CCOC(=O)Cn1c(CSc2ncnc3[nH]cnc23)nc2cccc(F)c2c1=O	2
O=c1c2ccc([N+](=O)[O-])cc2nc(CSc2ncnc3[nH]cnc23)n1-c1ccccc1Cl	17
COc1cc2nc(CSc3ncnc4[nH]cnc34)n(-c3ccccc3Cl)c(=O)c2cc1OC	9
Nc1ncnc2c1ncn2Cc1nc2c(Cl)cccc2c(=O)n1-c1ccccc1Cl	18
O=c1c2cccc(C(F)(F)F)c2nc(CSc2ncnc3[nH]cnc23)n1-c1ccccc1Cl	12
O=c1c2ccccc2nc(CSc2ncnc3[nH]cnc23)n1-c1ccncc1	30
COc1ccccc1-n1c(CSc2ncnc3[nH]cnc23)nc2ccccc2c1=O	36
CCCCn1c(Cn2cnc3c(N)ncnc32)nc2ccccc2c1=O	1
COc1ccccc1-n1c(CSc2ncnc3[nH]cnc23)nc2cccc(C)c2c1=O	19
Nc1ncnc2c1ncn2Cc1nc2cccc(F)c2c(=O)n1Cc1ccccc1	-10
Nc1ncnc2c1ncn2Cc1nc2cccc(Cl)c2c(=O)n1-c1ccccc1-c1ccccc1	30
O=c1c2ccccc2nc(CSc2ncnc3[nH]ncc23)n1-c1ccccc1Cl	38

Tested on: PIK3CD (mouse)
Test: Assessment of Stimulus Induced B Cell Proliferation
Conditions: b cells

Structure (SMILES)	pEC50
O=c1c2ccccc2nc(CSc2ncnc3[nH]cnc23)n1N1CCOCC1	6.05
O=c1c2ccc(F)cc2nc(CSc2ncnc3[nH]cnc23)n1-c1ccccc1Cl	5.74
COc1ccccc1Cn1c(CSc2ncnc3[nH]cnc23)nc2ccccc2c1=O	6.05
CCCCn1c(CSc2ncnc3[nH]cnc23)nc2ccccc2c1=O	5.85
O=c1c2c(Cl)cccc2nc(CSc2ncnc3[nH]cnc23)n1-c1ccccc1-c1ccccc1	5.85
O=c1c2cc3ccccc3cc2nc(CSc2ncnc3[nH]cnc23)n1-c1ccccc1Cl	6.05
Cc1cccc2nc(Cn3cnc4c(N)ncnc43)n(-c3ccccc3Cl)c(=O)c12	6.52
O=c1c2c(F)cccc2nc(CSc2ncnc3[nH]cnc23)n1Cc1ccccc1	5.85
Nc1ncnc2c1ncn2Cc1nc2cccc(Cl)c2c(=O)n1-c1ccccc1Cl	6.70
Cc1cccc2nc(CSc3ncnc4[nH]cnc34)n(-c3c(Cl)cccc3Cl)c(=O)c12	6.22
Cc1ccccc1-n1c(CSc2ncnc3[nH]cnc23)nc2cccc(Cl)c2c1=O	6.70
Nc1ncnc2c1ncn2Cc1nc2cccc(Cl)c2c(=O)n1-c1ccccc1F	6.52
Cc1cccc2nc(Cn3cnc4c(N)ncnc43)n(-c3ccccc3F)c(=O)c12	6.40
Nc1ncnc2c1ncn2Cc1nc2cc(F)ccc2c(=O)n1-c1ccccc1Cl	5.41
Cc1cccc2nc(Cn3cnc4c(N)ncnc43)n(-c3ccccc3C(C)C)c(=O)c12	7.00
O=c1c2c(Cl)cccc2nc(CSc2ncnc3[nH]cnc23)n1-c1ccccc1Cl	6.52
Cc1cccc2nc(CSc3ncnc4[nH]cnc34)n(-c3ccccc3C(C)C)c(=O)c12	6.70
O=c1c2cc(F)ccc2nc(CSc2ncnc3[nH]cnc23)n1-c1ccccc1Cl	6.40

Structure (SMILES)	pEC50
Cc1cccc2nc(CSc3ncnc4[nH]cnc34)n(-c3ccccc3F)c(=O)c12	6.70
O=c1c2c(F)cccc2nc(CSc2ncnc3[nH]cnc23)n1-c1ccccc1Cl	5.92
Cc1cccc2nc(CSc3ncnc4[nH]cnc34)n(-c3ccccc3Cl)c(=O)c12	6.52
O=c1c2ccccc2nc(CSc2ncnc3[nH]cnc23)n1-c1ccccc1Cl	6.05
Nc1ncnc2c1ncn2Cc1nc2c(Cl)cccc2c(=O)n1-c1ccccc1Cl	6.00
O=c1c2ccccc2nc(CSc2ncnc3[nH]cnc23)n1-c1ccccc1	5.85
Nc1ncnc2c1ncn2Cc1nc2cccc(F)c2c(=O)n1-c1ccccc1Cl	6.15
O=c1c2ccccc2nc(CSc2ncnc3[nH]cnc23)n1Cc1ccccc1	5.92
O=c1cc(N2CCOCC2)oc2c(-c3ccccc3)cccc12	6.05
O=c1c2c(Cl)cccc2nc(CSc2ncnc3[nH]cnc23)n1-c1ccccc1F	6.52
Cc1ccccc1-n1c(Cn2cnc3c(N)ncnc32)nc2cccc(C)c2c1=O	7.00
COc1ccccc1-n1c(CSc2ncnc3[nH]cnc23)nc2cccc(C)c2c1=O	6.52
Nc1ncnc2c1ncn2Cc1nc2cccc(F)c2c(=O)n1Cc1ccccc1	5.70
O=c1c2cc(F)c(F)cc2nc(CSc2ncnc3[nH]cnc23)n1-c1ccccc1Cl	< 5.70
O=c1c2cccc(Cl)c2nc(CSc2ncnc3[nH]cnc23)n1-c1ccccc1Cl	5.74
Nc1ncnc2c1ncn2Cc1nc2cccc(Cl)c2c(=O)n1-c1ccccc1-c1ccccc1	6.52
O=c1c2ccccc2nc(CSc2ncnc3[nH]ncc23)n1-c1ccccc1Cl	5.51

Target: PIK3CB (UniProt P42338)
Sequence (P42338 whole entry, looked up): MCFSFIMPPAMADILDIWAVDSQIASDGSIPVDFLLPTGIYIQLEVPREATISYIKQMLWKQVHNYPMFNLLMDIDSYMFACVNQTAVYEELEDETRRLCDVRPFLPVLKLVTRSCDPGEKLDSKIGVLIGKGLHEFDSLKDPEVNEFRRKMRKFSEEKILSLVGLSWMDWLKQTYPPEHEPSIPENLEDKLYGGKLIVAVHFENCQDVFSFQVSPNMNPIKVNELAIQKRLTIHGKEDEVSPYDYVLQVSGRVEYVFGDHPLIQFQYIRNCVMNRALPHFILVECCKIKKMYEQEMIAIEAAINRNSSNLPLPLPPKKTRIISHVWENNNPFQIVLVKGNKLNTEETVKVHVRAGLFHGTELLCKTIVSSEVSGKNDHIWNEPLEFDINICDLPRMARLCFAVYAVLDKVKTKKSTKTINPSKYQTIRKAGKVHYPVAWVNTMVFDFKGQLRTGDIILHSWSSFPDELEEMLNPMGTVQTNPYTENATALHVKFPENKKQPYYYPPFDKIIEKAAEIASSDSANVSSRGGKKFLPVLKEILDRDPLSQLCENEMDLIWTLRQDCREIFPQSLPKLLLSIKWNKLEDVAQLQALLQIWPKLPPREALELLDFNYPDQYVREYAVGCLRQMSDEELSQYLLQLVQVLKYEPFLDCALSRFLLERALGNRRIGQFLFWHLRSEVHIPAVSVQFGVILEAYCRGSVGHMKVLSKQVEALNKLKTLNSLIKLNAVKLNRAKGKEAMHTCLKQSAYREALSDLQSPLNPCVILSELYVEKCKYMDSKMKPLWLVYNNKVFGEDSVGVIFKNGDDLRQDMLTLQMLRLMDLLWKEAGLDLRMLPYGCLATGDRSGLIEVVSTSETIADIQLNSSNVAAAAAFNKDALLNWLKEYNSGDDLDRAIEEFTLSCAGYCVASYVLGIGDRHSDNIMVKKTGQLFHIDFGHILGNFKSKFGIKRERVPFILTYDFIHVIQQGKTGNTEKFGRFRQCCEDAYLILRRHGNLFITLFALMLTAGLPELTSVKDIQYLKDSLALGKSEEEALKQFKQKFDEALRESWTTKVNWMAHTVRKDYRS
Test: Inhibition of PIK3CB Kinase Activity
Conditions: not given

Structure (SMILES)	pIC50
O=c1c2ccc(F)cc2nc(CSc2ncnc3[nH]cnc23)n1-c1ccccc1Cl	3.96
COc1ccccc1Cn1c(CSc2ncnc3[nH]cnc23)nc2ccccc2c1=O	4.51
O=c1c2c(Cl)cccc2nc(CSc2ncnc3[nH]cnc23)n1-c1ccccc1-c1ccccc1	4.89
O=c1c2cc3ccccc3cc2nc(CSc2ncnc3[nH]cnc23)n1-c1ccccc1Cl	3.98 and 4.00
Cc1cccc2nc(Cn3cnc4c(N)ncnc43)n(-c3ccccc3Cl)c(=O)c12	4.52 and 4.14
Nc1ncnc2c1ncn2Cc1nc2cccc(Cl)c2c(=O)n1-c1ccccc1Cl	5.22 and 4.36
Cc1cccc2nc(CSc3ncnc4[nH]cnc34)n(-c3c(Cl)cccc3Cl)c(=O)c12	4.96 and 3.99
Nc1ncnc2c1ncn2Cc1nc2cccc(Cl)c2c(=O)n1-c1ccccc1F	3.97 and 4.96
Cc1cccc2nc(Cn3cnc4c(N)ncnc43)n(-c3ccccc3F)c(=O)c12	4.02 and 4.85
O=c1c2cc(F)ccc2nc(CSc2ncnc3[nH]cnc23)n1-c1ccccc1Cl	4.89
COc1cc2nc(Cn3cnc4c(N)ncnc43)n(-c3ccccc3Cl)c(=O)c2cc1OC	4.35
CN1CCN(n2c(CSc3ncnc4[nH]cnc34)nc3ccccc3c2=O)CC1	4.21
Nc1ncnc2c1ncn2Cc1nc2c(Cl)cccc2c(=O)n1-c1ccccc1Cl	4.17
Nc1ncnc2c1ncn2Cc1nc2cccc(F)c2c(=O)n1-c1ccccc1Cl	4.34
O=c1c2ccccc2nc(CSc2ncnc3[nH]cnc23)n1Cc1ccccc1	4.10
O=c1c2ccccc2nc(CSc2ncnc3[nH]cnc23)n1-c1ccncc1	4.60
O=c1c2c(Cl)cccc2nc(CSc2ncnc3[nH]cnc23)n1-c1ccccc1F	3.98 and 4.26
COc1ccccc1-n1c(CSc2ncnc3[nH]cnc23)nc2ccccc2c1=O	4.02
